US20230381162A1, “TREATMENTS OF ANGIOEDEMA” (KALVISTA PHARMACEUTICALS LIMITED, priority 2020, published 2023)

Key:
[1] = human, in vivo; cited from earlier work
Human plasma kallikrein = target: T1, Human plasma kallikrein (Homo sapiens, UniProt P03952); assay: Plasma kallikrein inhibitory activity in vitro (purified enzyme, fluorogenic substrate); assay type: biochemical
T1 construct: purchased Protogen
Procedure: Human plasma kallikrein (Protogen) was incubated at 25° C. with the fluorogenic substrate H-DPro-Phe-Arg-AFC and various concentrations of the test compound. Residual enzyme activity (initial rate of reaction) was determined by measuring the change in […] at 410 nm and the IC50 value for the test compound was determined.

purified PKa = purified PKa (Homo sapiens, UniProt P03952); assay: Rate of formation of the enzyme-inhibitor complex (Kon) with purified PKa; assay type: biochemical
Procedure: The rate of formation of the enzyme-inhibitor complex (Kon) was determined using purified PKa rapidly mixed with a solution containing fluorogenic substrate and a concentration range of inhibitor. The time-dependent establishment of inhibition was then used to calculate the rate of formation of the enzyme-inhibitor complex for each concentration of inhibitor. The Kon was calculated by plotting the rate of inhibition versus the inhibitor concentration. Data in Table 1 are presented in μM^−1 sec^−1.

[2] = target: PKa in DXS-activated plasma (Homo sapiens, UniProt P03952); assay: Catalytic activity of PKa in dextran sulfate-activated plasma (inhibitor added in vitro); assay type: biochemical; details: read-out: IC50 plasma enzyme
Procedure: Catalytic activity of PKa in dextran sulfate-activated (DXS, Sigma; 10 μg/ml) plasma (1:4 diluted or undiluted, VisuCon-F control plasma, Affinity Biologicals Inc) was determined by the time-dependent hydrolysis of fluorogenic substrate.

[3] = target: T2, plasma kallikrein activity in pre-activated plasma (Homo sapiens, UniProt P03952); assay: Inhibition of enzyme activity of pre-activated undiluted plasma (inhibitor added after DXS); assay type: biochemical; details: compound 300, 1000, 3000 nM; C1-INH 3000 nM; added 3.5 minutes post DXS (FIG. 3B)
T2 construct: from tissue
Procedure: The ability of the compound to inhibit the enzyme activity of pre-activated plasma was assessed by addition of the compound after DXS stimulation. Aliquots of plasma (20 μL) were mixed with a 2.5 μL solution containing […] fluorogenic substrate (H-DPro-Phe-Arg-AFC) and a 2.5 μL solution of dextran sulphate (DXS; 100 μg/mL) which acted as an activator of the plasma kallikrein-kinin pathway. Enzyme activity was immediately measured by monitoring the accumulation of fluorescence liberated from the substrate by substrate cleavage over 16 minutes. At 3.5 minutes post DXS addition 5 μl of inhibitors or water control are were added into each well. The compound was tested at concentrations of 300, 1000 and 3000 nM. C1-INH at a concentration of 3000 nM and vehicle controls were also included.

[4] = Phase 1 single ascending dose study: plasma concentrations (PK); assay type: in vivo, human; details: oral capsule, fasted, 5 mg to 600 mg
Procedure: (§1) This study was a randomized, double-blind, placebo-controlled single ascending dose (SAD) and crossover studies for food effect and capsule/tablet formulations.
Samples for pharmacokinetic (PK) and PD assessment were taken at repeated intervals over 48 hours.
Plasma samples used for PK assessment were analysed using a validated liquid chromatography tandem mass spectrometry (LC MS/MS) method.

[5] = Phase 1 single ascending dose study: safety and tolerability; assay type: in vivo, human; details: phase I trial, healthy males
Description: as §1

[6] = system: angioedema attacks in adult subjects with hereditary angioedema type I or II; assay: Phase 2 study Part 2: on-demand treatment of HAE attacks, efficacy; assay type: in vivo, human; details: 600 mg
Procedure: This was a phase 2, two-part, two-sequence, two-period (2×2) cross-over clinical trial. Subjects with HAE type I or II were recruited through HAE treatment centres in Europe and US.
(§2) In Part 2, the subjects were randomized 1:1 to 2 treatment sequences. This part of the study was conducted away from the clinic or hospital. In Sequence 1 (study arm 1) subjects received a single dose of 600 mg of the compound to treat the first eligible HAE attack. Following resolution of this attack, subjects received a single dose of placebo to treat the second eligible HAE attack.
In Sequence 2 (study arm 2) subjects received a single dose of placebo to treat the first eligible HAE attack. Following resolution of this attack, subjects received a single dose of 600 mg of the compound to treat the second eligible HAE attack.
Laryngeal or facial attacks were not eligible for treatment. HAE attacks must have been treated within the first hour of onset and before reaching severe on the global attack severity scale. Subjects must also have been able to identify the start of a HAE attack. Upon onset of the eligible HAE attack, subjects notified the dedicated study physician or qualified designee with a description of the HAE attack. The dedicated study physician or qualified designee confirmed eligibility of the HAE attack and agreed to study drug being administered. HAE attacks required documentation, on the Subject Diary, of attack location, attack symptoms, time of onset, attack severity, and time of last substantial meal prior to dosing. Subjects took study drug, as instructed, and completed timed assessments of their HAE attack symptoms for a 48 h period as documented below in Table 3. The dedicated study physician or qualified designee contacted the subject within 24 h of the eligible HAE attack to confirm the subject's safety and wellbeing. Subjects were instructed to contact the dedicated study physician or qualified designee in case of any safety concerns. In the case of hypersensitivity, subjects contacted the dedicated study physician or qualified designee or contact the nearest emergency service. The dedicated study physician or qualified designee was available 24 h/day and 7 days/week to receive subject calls.
Time to use of conventional attack treatment was assessed. The subject diary captured the efficacy endpoints including time to use of conventional attack treatment and HAE attack severity.
Overall HAE attack severity was assessed on a 5-point Likert scale (5LS) scored as none, mild, moderate, severe and very severe.
Change in HAE attack severity was assessed using a 7-point transition question (7TQ), scored as Much better/Better/A little better/No change/A little worse/Worse/Much worse.
The type of HAE attack symptoms (abdominal pain, skin pain and skin swelling) was each assessed on a 100 mm visual analogue scale (VAS) anchored at 0 (none) and 100 (very severe).
The primary endpoint, time to use of conventional attack treatment, was analyzed using a generalization of Gehan's test proposed by Feingold and Gillespie (1996) (Crossover trials with censored data. Statistics in Medicine 1996; 15(10): 953-967) to reflect the repeat measures on each subject. Subjects were treated as censored if no worsening occurs within 12 h of study drug.
The proportion of HAE attacks that worsen by one level or more on the 5LS or that require conventional attack treatment within 12 h of study drug was analyzed using Prescott's test (1981) (The comparison of success rates in cross-over trials in the presence of an order effect. Applied Statistics 1981; 30: 9-15) to compare the treatment arms.
A similar approach to that used for the primary endpoint was followed for the analysis of the time between study drug and HAE attack worsening by one level or more on the 5LS or use of conventional attack treatment, whichever comes first within 12 h. […]

[7] = Phase 2 study: safety (adverse events); assay type: in vivo, human
Procedure: In Part 1, subjects received a single oral dose of 600 mg of the compound to investigate the safety, PK and PD of the compound during the intercritical period between HAE attacks.
as §2
Safety Variables: • AEs, including serious adverse events (SAEs). • Laboratory test results (clinical chemistry, hematology, coagulation, and urinalysis). • Vital signs (SBP, DBP, PR, RR, body temperature). • Physical examination findings. • ECG results. • Pregnancy test (female subjects of child-bearing potential).
AEs were coded using the Medical Dictionary for Regulatory Activities (MedDRA) dictionary (v21.0 or higher) and classified by preferred term and system organ class (SOC). Listings of treatment-emergent adverse events (TEAEs), serious TEAEs, and TEAEs causing premature discontinuation will be provided by sequence group, and further classified by TEAE severity and relationship to study drug.

[8] = Phase 1 multiple dose study in healthy adult subjects: safety, ECG; assay type: in vivo, human; details: 3 x 600 mg every 8, 4 or 2 hours, total 1800 mg
Procedure: This is a phase 1, double-blind, placebo-controlled, multiple-dose, multiple-cohort study to evaluate safety and tolerability of the compound as well as of the ECG effects of the compound formulated as 100 mg Film Coated Tablets in healthy adult male and female subjects.
During the study, oral doses of 600 mg of the compound as Film Coated Tablets (six 100 mg tablets) or 6 matching placebo tablets will be administered once every 8 hours (Cohort 1) every 4 hours (Cohort 2), or every 2 hours (Cohort 3 and 4) to healthy adult male and female subjects up to a total dose of 1800 mg. In Cohorts 1, 2 and 3, 6 subjects will receive the compound as 100 mg Film Coated Tablets and 2 subjects will receive the placebo for a total of 8 subjects per cohort. In Cohort 4, 12 subjects will receive the compound as 100 mg Film Coated Tablets and 6 subjects will receive the placebo for a total of 18 subjects.
A Holter monitor will be attached to each subject in order to continuously record ECGs. The monitor will be attached 1 hour before the first dose and will remain attached until after the final blood sample collection. The electrodes for the Holter monitor will be checked by a member of the clinic staff at appropriate intervals to ensure they are attached.

[9] = higher doses; cited from earlier work

purified PKa, sequence (P03952 391-638 limits assumed): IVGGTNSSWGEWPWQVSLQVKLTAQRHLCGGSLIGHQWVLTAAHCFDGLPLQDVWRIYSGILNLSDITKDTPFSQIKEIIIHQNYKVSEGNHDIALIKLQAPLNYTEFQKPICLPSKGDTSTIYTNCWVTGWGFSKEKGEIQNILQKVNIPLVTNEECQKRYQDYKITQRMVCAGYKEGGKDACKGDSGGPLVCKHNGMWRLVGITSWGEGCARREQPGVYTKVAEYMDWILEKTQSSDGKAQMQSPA
purified PKa, sequence (P03952 20-390 partner limits assumed): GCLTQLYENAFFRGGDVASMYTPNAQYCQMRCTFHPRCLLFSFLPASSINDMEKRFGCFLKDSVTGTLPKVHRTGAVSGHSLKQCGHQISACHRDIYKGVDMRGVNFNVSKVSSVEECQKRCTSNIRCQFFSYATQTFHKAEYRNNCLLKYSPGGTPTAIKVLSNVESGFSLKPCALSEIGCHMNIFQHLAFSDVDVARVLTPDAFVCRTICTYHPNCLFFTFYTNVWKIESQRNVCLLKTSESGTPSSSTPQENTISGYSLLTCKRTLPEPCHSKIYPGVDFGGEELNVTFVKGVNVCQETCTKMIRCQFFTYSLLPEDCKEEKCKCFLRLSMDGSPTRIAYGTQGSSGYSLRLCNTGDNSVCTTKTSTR
PKa in DXS-activated plasma, sequence (P03952 391-638 limits assumed): as the sequence (P03952 391-638 limits assumed) above
PKa in DXS-activated plasma, sequence (P03952 20-390 partner limits assumed): as the sequence (P03952 20-390 partner limits assumed) above
T2 sequence (P03952 391-638 limits assumed): as the sequence (P03952 391-638 limits assumed) above
T2 sequence (P03952 20-390 partner limits assumed): as the sequence (P03952 20-390 partner limits assumed) above
T1 sequence (P03952 391-638 limits assumed): as the sequence (P03952 391-638 limits assumed) above
T1 sequence (P03952 20-390 partner limits assumed): as the sequence (P03952 20-390 partner limits assumed) above

For Ecallantide, the anaphylactic reactions [1] is given as “risks of anaphylactic reactions have been reported”.

Work on “C1-INH: C1 inhibitor (C1-INH, Sigma Cat #E0518), used as a therapeutic benchmark for HAE [Compound C1-INH]” yielded an IC50 (Human plasma kallikrein) of 50 nM, a Kon (purified PKa) of 40000 M⁻¹ s⁻¹ and an IC50 [2] of 1700 nM. The “inhibition of enzyme activity on addition after activation of plasma” value [3] was “slower action”.

In the case of COCc1nn(Cc2ccc(Cn3ccccc3=O)cc2)cc1C(=O)NCc1nccc(OC)c1F [compound of Formula A, N-[(3-fluoro-4-methoxypyridin-2-yl)methyl]-3-(methoxymethyl)-1-({4-[(2-oxopyridin-1-yl)methyl]phenyl}methyl)pyrazole-4-carboxamide], the plasma exposure [4] is reported as “rapid and dose-dependent plasma exposure”, the serious adverse events [5] is reported as “No serious adverse events” and the tolerability signals [5] is reported as “no tolerability signals”. The “median time for attacks to be rated better or higher (7TQ)” value [6] was 5 h, the “median time to onset of symptom relief on PGI-C (7TQ)” value [6] was 1.6 h and the “median time to symptom relief, composite VAS score” value [6] was 6 h. For the same compound, the “attacks rescued (use of rescue medication)” value ([6]; at 12 hours) was 15.1%, the “use of rescue medication” value ([6]; at 24 hours) was 20.8% and the “attacks improved to none on PGI-S (5LS)” value ([6]; within 12 hours) was 56.6%. The “attacks rated a little better or higher (7TQ)” value ([6]; within 12 hours) was 83.0%, the “attacks rated better or higher (7TQ)” value ([6]; within 12 hours) was 58.7% and the “attacks that do not worsen” value ([6]; within 12 hours) was 79.2%. For the same compound, the “attacks improved to none on PGI-S (5LS)” value ([6]; within 24 hours) was 66.0%, the “attacks rated a little better or higher (7TQ)” value ([6]; within 24 hours) was 84.9% and the “attacks rated better or higher (7TQ)” value ([6]; within 24 hours) was 67.9%. For the same compound, the “attacks that do not worsen (5LS)” value ([6]; within 24 hours) was 69.8%, the “on-treatment drug-related TEAEs, number of events” value ([7]; Part 1, open-label, 600 mg) was 8 and the “patients with on-treatment drug-related TEAEs” value ([7]; Part 1, open-label, 600 mg) was 5 patients. For the same compound, the “on-treatment drug-related TEAEs, number of events” value ([7]; Part 2, crossover, 600 mg) was 3, the serious adverse events ([7]; phase 2 trial) was “no serious adverse events” and the “withdrawals due to adverse events” value ([7]; phase 2 trial) was “no patients withdrew due to adverse events”. For the same compound, the “discontinuations because of an AE” value [8] was “no subjects were discontinued because of an AE”, the “effects on the studied ECG parameters” value [8] was “No clinically relevant effects” and the serious adverse events [8] was “No serious adverse events”. For the same compound, the “severity of all reported adverse events” value [8] was “mild”.

In the case of N#Cc1cccc([C@@H](NCC2CC2)c2ccc(F)c(NC(=O)c3cc(C(F)(F)F)nn3-c3cccc(CN)c3)c2)c1 [berotralstat], the gastrointestinal adverse effects [9] is listed as “more gastrointestinal adverse effects”.
